Values after ≈ are worked out from the molar mass of the structure shown.
Columns and labels:
[1] = molecular target: T1, human NK1 receptor (Homo sapiens, UniProt P25103); test: NK1 receptor binding, [3H]substance P displacement; settings: for relative activity of enantiomer in the test for NK-1 binding: enantiomer fraction from Chiralpak AD separation of the racemate; for Ki: human NK1 receptors in CHO cells, [3H]substance P 0.6 nM, read-out: pKi (affinity to the NK-1 receptor) (converted)
T1 construct: expressed in transfected cells; host or cells: CHO cells, Semliki virus expression system; membrane suspension
Experimental: The affinity of test compounds for the NK1 receptor was evaluated at human NK1 receptors in CHO cells infected with the human NK1 receptor (using the Semliki virus expression system) and radiolabelled with [^3H]substance P (final concentration 0.6 nM). Binding assays were performed in HEPES buffer (50 mM, pH 7.4) containing BSA (0.04%) leupeptin (8 μg/ml), MnCl2 (3 mM) and phosphoramidon (2 μM). Binding assays consisted of 250 μl of membrane suspension (1.25×10^5 cells/assay tube), […] of buffer of displacing agent and 125 μl of [^3H]substance P. Displacement curves were determined with at least seven concentrations of the compound. The assay tubes were incubated for 60 min at room temperature after which time the tube contents were rapidly filtered under vacuum through GF/C filters presoaked for 60 min with PEI (0.3%) with 2×2 ml washes of HEPES buffer (50 mM, pH 7.4). The radioactivity retained on the filters was measured by scintillation counting. All assays were performed in triplicate in at least 2 separate experiments.

[2] = Solubility at pH 6.5 and pH 4.3 (water-solubility); settings: water (aqueous medium; buffer not named)

T1 sequence (P25103 whole entry): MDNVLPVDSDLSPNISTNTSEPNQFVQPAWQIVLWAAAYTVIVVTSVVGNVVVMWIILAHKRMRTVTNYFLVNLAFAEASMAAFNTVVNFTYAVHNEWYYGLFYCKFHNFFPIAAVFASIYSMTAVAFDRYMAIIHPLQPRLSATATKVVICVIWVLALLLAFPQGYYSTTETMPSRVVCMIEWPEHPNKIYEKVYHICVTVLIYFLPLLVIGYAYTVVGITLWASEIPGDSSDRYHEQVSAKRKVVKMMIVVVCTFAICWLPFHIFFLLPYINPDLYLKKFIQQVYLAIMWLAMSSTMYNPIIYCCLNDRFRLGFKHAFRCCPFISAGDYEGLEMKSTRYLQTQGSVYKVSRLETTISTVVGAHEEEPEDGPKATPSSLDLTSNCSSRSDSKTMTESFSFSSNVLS

With `CC(C)(C)OC(=O)N1CCN(C2CCN(C(=O)c3cc(C(F)(F)F)cc(C(F)(F)F)c3)CC2c2ccccc2)CC1` (single isomer, unassigned; (-)) [Example 101, (−)-4-[1-(3,5-Bis-trifluoromethyl-benzoyl)-3-phenyl-piperidin-4-yl]-piperazine-1-carboxylic Acid Tert-Butyl Ester] the “relative activity of enantiomer in the test for NK-1 binding” value (“relative activity of enantiomer” below) [1] was “more active enantiomer”.

In the case of `O=C(c1cc(C(F)(F)F)cc(C(F)(F)F)c1)N1CC[C@@H](N2CCOCC2)[C@@H](c2ccc(Cl)cc2)C1` (single isomer, unassigned) [Example 70, (−)-(3,5-Bis-trifluoromethyl-phenyl)-[3-(4-chloro-phenyl)-4-morpholin-4-yl-piperidin-1-yl]-methanone], the “relative activity of enantiomer” value [1] was “more active enantiomer” and the Ki [1] was 2.57 nM.

In the case of `Cc1ccc(C2CN(C(=O)c3cc(C(F)(F)F)cc(C(F)(F)F)c3)CCC2N2CCN(C(=O)C(F)(F)F)CC2)cc1` (single isomer, unassigned; (-)) [Example 100, (−)-{4-[1-(3,5-Bis-trifluoromethyl-benzoyl)-3-p-tolyl-piperidin-4-yl]-piperazin-1-yl}-2,2,2-trifluoro-ethanone], the “relative activity of enantiomer” value [1] was “more active enantiomer”.

Compound `O=C(c1cc(C(F)(F)F)cc(C(F)(F)F)c1)N1CC[C@H](N2CCN(CC3CC3)CC2)[C@H](c2ccc(F)cc2)C1` (racemic) [Example 88, Rac-cis-(3,5-Bis-trifluoromethyl-phenyl)-[4-(4-cyclopropylmethyl-piperazin-1-yl)-3-(4-fluoro-phenyl)-piperidin-1-yl]-methanone] has a Ki [1] of 3.16 nM.

Compound `O=C(c1cc(C(F)(F)F)cc(C(F)(F)F)c1)N1CC[C@H](N2CCN(C(=O)C(F)(F)F)CC2)[C@H](c2ccc(Cl)cc2)C1` (racemic) [Example 106, Rac-cis-1-{4-[1-(3,5-Bis-trifluoromethyl-benzoyl)-3-(4-chloro-phenyl)-piperidin-4-yl]-piperazin-1-yl}-2,2,2-trifluoro-ethanone] has a Ki [1] of 3.16 nM.

In the case of `CN1CCN([C@@H]2CCN(C(=O)c3cc(C(F)(F)F)cc(C(F)(F)F)c3)C[C@@H]2c2ccc(F)cc2)CC1` (single isomer, unassigned) [Example 90, (−)-(3,5-Bis-trifluoromethyl-phenyl)-[3-(4-fluoro-phenyl)-4-(4-methyl-piperazin-1-yl)-piperidin-1-yl]-methanone], the “relative activity of enantiomer” value [1] was “more active enantiomer” and the Ki [1] was 2.45 nM.

`CN1CCN([C@H]2CCN(C(=O)c3cc(C(F)(F)F)cc(C(F)(F)F)c3)C[C@H]2c2ccc(F)cc2)CC1` (racemic) [Example 45, Rac-cis-(3,5-Bis-trifluoromethyl-phenyl)-[3-(4-fluoro-phenyl)-4-(4-methyl-piperazin-1-yl)-piperidin-1-yl]-methanone] showed a solubility ([2]; pH 4.3, aqueous buffer) of 2400 µg/mL (≈ 4.64 mM) and a solubility ([2]; pH 6.5, aqueous buffer) of 1000 µg/mL (≈ 1.93 mM).

In the case of `O=C(c1cc(C(F)(F)F)cc(C(F)(F)F)c1)N1CCC(N2CCN(CC3CC3)CC2)C(c2ccc(Cl)cc2)C1` (single isomer, unassigned; (-)) [Example 113, (−)-(3,5-Bis-trifluoromethyl-phenyl)-[3-(4-chloro-phenyl)-4-(4-cyclopropylmethyl-piperazin-1-yl)-piperidin-1-yl]-methanone], the Ki [1] was 0.363 nM.

With `O=C(c1cc(C(F)(F)F)cc(C(F)(F)F)c1)N1CC[C@@H](N2CCN(C3CC3)CC2)[C@@H](c2ccccc2)C1` (single isomer, unassigned) [Example 119, (−)-(3,5-Bis-trifluoromethyl-phenyl)-[4-(4-cyclopropyl-piperazin-1-yl)-3-phenyl-piperidin-1-yl]-methanone] the Ki [1] was 1 nM.

For `Cc1ccc(C2CN(C(=O)c3cc(C(F)(F)F)cc(C(F)(F)F)c3)CCC2N2CCN(C(=O)C3CC3)CC2)cc1` (single isomer, unassigned; (-)) [Example 103, (−)-(3,5-Bis-trifluoromethyl-phenyl)-[4-(4-cyclopropanecarbonyl-piperazin-1-yl)-3-p-tolyl-piperidin-1-yl]-methanone], the Ki [1] was 2.14 nM.

`O=C(c1cc(C(F)(F)F)cc(C(F)(F)F)c1)N1CCC(N2CCC(OCC3CC3)CC2)C(c2ccc(Cl)cc2)C1` (racemic) [Example 66, Rac-cis-(3,5-Bis-trifluoromethyl-phenyl)-[3′-(4-chloro-phenyl)-4-cyclopropylmethoxy-[1,4′]bipiperidinyl-1′-yl]-methanone] gave a Ki [1] of 2.75 nM.

With `O=C(c1cc(C(F)(F)F)cc(C(F)(F)F)c1)N1CCC(N2CCC(NC3CC3)CC2)C(c2ccc(Cl)cc2)C1` (racemic) [Example 112, Rac-cis-(3,5-Bis-trifluoromethyl-phenyl)-[3′-(4-chloro-phenyl)-4-cydopropylamino-[1,4′]bipiperidinyl-1′-yl]-methanone] the Ki [1] was 0.794 nM.

Compound `O=C(c1cc(C(F)(F)F)cc(C(F)(F)F)c1)N1CCC(N2CCC(N3CCOCC3)CC2)C(c2ccc(Cl)cc2)C1` (racemic) [Example 109, Rac-cis-(3,5-Bis-trifluoromethyl-phenyl)-[3′-(4-chloro-phenyl)-4-morpholin-4-yl-[1,4′]bipiperidinyl-1′-yl]-methanone] has a Ki [1] of 1.62 nM.

`Cc1ccc(C2CN(C(=O)c3cc(C(F)(F)F)cc(C(F)(F)F)c3)CCC2N2CCN(C)CC2)cc1` (single isomer, unassigned; (-)) [Example 111, (−)-(3,5-Bis-trifluoromethyl-phenyl)-[4-(4-methyl-piperazin-1-yl)-3-p-tolyl-piperidin-1-yl]-methanone] gave a Ki [1] of 0.457 nM.

Work on `Cc1ccc(C2CN(C(=O)c3cc(C(F)(F)F)cc(C(F)(F)F)c3)CCC2N2CCN(C3CC3)CC2)cc1` (single isomer, unassigned; (-)) [Example 110, (−)-(3,5-Bis-trifluoromethyl-phenyl)-[4-(4-cyclopropyl-piperazin-1-yl)-3-p-tolyl-piperidin-1-yl]-methanone] yielded a Ki [1] of 1.05 nM.

With `O=C(c1cc(C(F)(F)F)cc(C(F)(F)F)c1)N1CC[C@@H](N2CCN(C(=O)C3CC3)CC2)[C@@H](c2ccccc2)C1` (single isomer, unassigned) [Example 65, (+)-(3,5-Bis-trifluoromethyl-phenyl)-[4-(4-cyclopropanecarbonyl-piperazin-1-yl)-3-phenyl-piperidin-1-yl]-methanone] the “relative activity of enantiomer” value [1] was “more active enantiomer” and the Ki [1] was 1.41 nM.

Work on `Cc1ccc(C2CN(C(=O)c3cc(C(F)(F)F)cc(C(F)(F)F)c3)CCC2N2CCN(C(=O)N3CCOCC3)CC2)cc1` (single isomer, unassigned; (-)) [Example 104, (−)-(3,5-Bis-trifluoromethyl-phenyl)-{4-[4-(morpholine-4-carbonyl)-piperazin-1-yl]-3-p-tolyl-piperidin-1-yl}-methanone] yielded a Ki [1] of 2.34 nM.

Work on `O=C(c1cc(C(F)(F)F)cc(C(F)(F)F)c1)N1CCC(N2CCN(CC3CC3)CC2)C(c2ccccc2)C1` (single isomer, unassigned; (-)) [Example 114, (−)-(3,5-Bis-trifluoromethyl-phenyl)-[4-(4-cyclopropylmethyl-piperazin-1-yl)-3-phenyl-piperidin-1-yl]-methanone] yielded a Ki [1] of 0.363 nM.

Compound `O=C(c1cc(C(F)(F)F)cc(C(F)(F)F)c1)N1CC[C@H](N2CCNCC2)[C@H](c2ccc(F)cc2)C1` (racemic) [Example 82, Rac-cis-(3,5-Bis-trifluoromethyl-phenyl)-[3-(4-fluoro-phenyl)-4-piperazin-1-yl-piperidin-1-yl]-methanone] has a Ki [1] of 2.09 nM.

— US6642226B2, “Substituted phenyl-piperidine methanone compounds” (Hoffman-La Roche Inc., priority 2001, dated 2003)
